Laboratory results published in patent US6833249B2, “Quick and sensitive method of quantifying mycolic acid to develop anti-microbial agents and a diagnostic kit thereof” (Council of Scientific and Industrial Research, priority 2002, dated 2004).

Test system: mycolic acid biosynthesis
Experiment: spectrophotometric assay of mycolic acid (carbol fuchsin complex) from treated M. smegmatis cells
Format: cell-based, Mycobacterium smegmatis
Settings: for production/synthesis of mycolic acid: Mycobacterium smegmatis treated with the substance, result in words; for absorbance at 495.89 nm: mycolic acid-carbol fuchsin complex in hexane, M. smegmatis grown 48 hrs at sub-lethal concentration (½ MIC): extract 312 μg/ml, thebaine 150 μg/ml, isoniazid 1 μg/ml, untreated control 1.4885
Description: Mycolic acids are branched, β-hydroxy fatty acids which occur in the cell wall of Corynebacterium, Nocardia and Mycobacterium. Their molecular size varies with the genus, i.e., from 30, 50, 80-carbon atoms in the order described above. Because of the correlation between genus and mycolic acid size, the test for this biochemical marker is done in the early stage of the identification of unknown actinomycetes. The method followed in this invention for the extraction of mycolic acid is according to Minniken et al. (1975). After proper growth of the bacteria, the culture is centrifuged at 5000 RPM for 5 minutes and lyophilized. Dry bacteria (100 mg) are mixed with methanol (5 ml), Toluene (5 ml) and concentrated sulphuric acid (0.2 ml) in a 20-ml screw cap tube (poly tetra fluoro ethylene lined). The contents of the tube are mixed thoroughly and methanolysis is allowed to proceed for 12-16 hours at 75° C. (stationary incubation). The reaction mixture is allowed to cool and mycolic acid is extracted by adding 1 ml of hexane. After vigorous mixing the mixture is allowed to settle and the upper hexane layer containing mycolic acid is collected. Samples of the hexane extract were spotted on TLC coated with Merck silica gel H (0.5 mm), along with standard mycolic acid and the chromatogram is developed in petroleum ether: diethyl ether (85:15).
By using this method the mycolic acid produced by the control was quantified as well as treated cells of M. smegmatis with different plant extracts and compounds. Some of the compounds are known to inhibit mycolic acid biosynthesis and others are plant extracts and unknown compounds. The compounds and the extracts were selected on the basis of loosening of acid fast stain in Mycobacterium smegmatis.
The culture of Mycobacterium smegmatis was frown in nutrient broth containing the sub-lethal concentration (½ MIC) of the compounds/extracts for 48 hrs. The cells were harvested by centrifugation and the pellets were lyophilized. Equal amount of the cells (100 mg) were taken both of control and treated cells and kept for methanolysis overnight as described in Example 1. The extracted hexane layer was allowed to dry and a common stock (5 mg/ml) was used to run a TLC plate to determine how much the inhibition of mycolic acid by calculation the amount of produced mycolic acid by a densitometer.
Compounds, which were showing loosening of acid fast staining, were also tested for spectrophotometric assay. The strain of Mycobacterium smegmatis giving 100% acid fast staining was grown for 48 hours in 50 ml culture media. As described earlier treatment of different compounds were given at sub-lethal concentrations in replicates were also grown for 48 hours. […]
The details of the treatments and the absorbance by different treatments are described in Table 2.

Row | SMILES | production/synthesis of mycolic acid | absorbance at 495.89 nm
1 | NNC(=O)c1ccncc1 [Isoniazid] | does not allow the production of mycolic acid | 0
2 | COC1=CC=C2[C@H]3Cc4ccc(OC)c5c4[C@@]2(CCN3C)[C@H]1O5 [Thebaine] | do not allow the synthesis of mycolic acid | 0
